From ChEMBL document CHEMBL3616474, “Synthesis of arabinose glycosyl sulfamides as potential inhibitors of mycobacterial cell wall biosynthesis” (2015)
Converted amounts (≈) assume the structure as drawn.

Tested on: Mycolicibacterium smegmatis
Assay: Antimicrobial activity against Mycobacterium smegmatis incubated for 18 hrs by Alamar blue assay
Format: functional

| Compound | MIC90 [µg/mL] |
| --- | --- |
| CCCCCCCCCCN(CCCCCCCCCC)S(=O)(=O)N[C@H]1OC[C@@H](O)[C@@H](O)[C@@H]1O | > 1000 |
| CCCCCCCCCCCCNS(=O)(=O)N[C@H]1OC[C@@H](O)[C@@H](O)[C@@H]1O | 250 (≈ 630 µM) |
| CCCCCCCCCCNS(=O)(=O)N[C@H]1OC[C@@H](O)[C@@H](O)[C@@H]1O | 62 (≈ 168 µM) |
| O=S(=O)(NCCOCCO)N[C@H]1OC[C@@H](O)[C@@H](O)[C@@H]1O | > 1000 |
| NNC(=O)c1ccncc1 [ISONIAZID] | 4 (≈ 29.2 µM) |
| CCCCCCCCCCCCN(CCCCCCCCCCCC)S(=O)(=O)N[C@H]1OC[C@@H](O)[C@@H](O)[C@@H]1O | > 1000 |
| CCCCCCCCNS(=O)(=O)N[C@H]1OC[C@@H](O)[C@@H](O)[C@@H]1O | 500 (≈ 1470 µM) |
| O=S(=O)(NCCOCCOCCOCCO)N[C@H]1OC[C@@H](O)[C@@H](O)[C@@H]1O | > 1000 |
| CCCCCCNS(=O)(=O)N[C@H]1OC[C@@H](O)[C@@H](O)[C@@H]1O | > 1000 |
| CCCCCCCCCCCCCCNS(=O)(=O)N[C@H]1OC[C@@H](O)[C@@H](O)[C@@H]1O | > 1000 |
| CCCCCCCCCCNS(N)(=O)=O | 500 (≈ 2120 µM) |
| CCCCCCCCN(CCCCCCCC)S(=O)(=O)N[C@H]1OC[C@@H](O)[C@@H](O)[C@@H]1O | 500 (≈ 1100 µM) |
| CC(C)CCCC(C)CCNS(=O)(=O)N[C@H]1OC[C@@H](O)[C@@H](O)[C@@H]1O (stereo not given in full) | 125 (≈ 339 µM) |
| O=S(=O)(NCCOCCOCCO)N[C@H]1OC[C@@H](O)[C@@H](O)[C@@H]1O | > 1000 |
| CCCCCCN(CCCCCC)S(=O)(=O)N[C@H]1OC[C@@H](O)[C@@H](O)[C@@H]1O | 125 (≈ 315 µM) |
